Laboratory results: patent US12714722B2, “Cancer combination therapies utilizing a nicotinamide phosphoribosyltransferase inhibitor in combination with a nicotinamide adenine dinucleotide salvage pathway precursor” (Fred Hutchinson Cancer Center, priority 2019, dated 2026)
“Also recorded” adds a separate entry of the source.

Key:
GSC 0827 = assay: Cell viability, FK866 with or without NMN, in GSC 0827 (NMRK1 low); type: cell-based, human; parameters: key to viability compared to No drug control: +: indicates similar viability compared to parental cells in ″No drug control″; −: indicates significantly diminished viability (as determined by Student's t-test); settings: for rescue of FK866-treated cells with NMN: GSC-0827 cells, in the presence of FK866
Description: (§1) Methods. Cell culture. NSC and GSC lines were grown in NeuroCult NS-A basal medium (StemCell Technologies) supplemented with B27 (Thermo Fisher), N2 (2× stock in Advanced DMEM/F-12 (Fisher) with 25 μg/mL insulin (Sigma), 100 μg/mL apo-Transferrin (Sigma), 6 ng/mL progesterone (Sigma), 16 μg/mL putrescine (Sigma), 30 nM sodium selenite (Sigma), and 50 μg/mL bovine serum albumin (Sigma), and EGF and FGF-2 (20 ng/mL each) (Peprotech) on laminin (Sigma or Trevigen) coated polystyrene plates and passaged according to previously published protocols (Pollard et al., Cell Stem Cell. 2009; 4(6):568-80). Cells were detached from their plates using Accutase (Thermo Fisher). 293T (ATCC) cells were grown in 10% FBS/DMEM (Invitrogen).
Metabolic inhibitors screen protocol and data analysis. 230 metabolic inhibitors were screened in GSC lines (0131 and 827) and NSC CB660 cell line grown in 96-well optical bottom plates. After 24 hours, inhibitors were diluted in cell media and added to plated cells. Inhibitor concentration was based on IC 50 for the target enzymes, with 1× being the IC50 0.25× being the lower concentration and 5× being the higher concentration. Each concentration was tested in triplicate. After 48 hours, cell viability was measured via Cell-Titer-Glo. A z-score was established for each compound concentration, based on Untreated and Puromycin treated cells. Positive candidates were defined as compounds with a z-score less than that of CB660 cells. Positive candidates were rescreened to verify results.
NMN and NR Complementation studies. To verify if selectivity of NAMPT inhibition relied on downregulation of salvaging pathways, 827 cells were tested on cell viability in the presence of FK866 and the addition of NMN.

[1] = system: GSCs (0131 and 0827) and control hNPC-CB660 cells; assay: Metabolic inhibitor library screen and retest, GSCs versus control neural stem cells; type: cell-based, human; settings: 48 hrs; Cell titerglo assay; n=3
Description: Example 1. To Identify New Metabolic Vulnerabilities in Human GSCs, a Chemical Library screen was performed using […] inhibitors of metabolic enzymes in two GSCs (0131 and 0827) and control hNPC-CB660 cells. […] To further explore this phenotype, an NAD salvage substrate, NMN was used, to bypass the requirement for NAMPT and rescue cytotoxicity. NMN is a substrate for the ectoenzyme CD73 (Ratajczak J et al., Nature communications. 2016; 7:13103), which generates NR, which is transported intracellular by equilibrative nucleoside transporters. (Nikiforov et al., J Biol Chem. 2011; 286(24):21767-78.) Intracellular NR is phosphorylated by NMRK in a NAMPT-independent NAD salvage pathway.
Methods. Cell culture. […]
Metabolic inhibitors screen protocol and data analysis. […] After 48 hours, cell viability was measured via Cell-Titer-Glo. […]

CB660 = assay: Cell viability (Cell-Titer-Glo), FK866 with or without NMN, in NSC-CB660; type: cell-based, human; parameters: key: +: indicates similar viability compared to parental cells in ″No drug control″; −: indicates significantly diminished viability (as determined by Student's t-test); settings: CB660 cells; FK-866 alone or with NMN
GSC 0827 + NMRK1 = assay: Cell viability, FK866 with or without NMN, in GSC 0827 ectopically expressing NMRK1; type: cell-based, human; parameters: key to viability compared to No drug control: +: indicates similar viability compared to parental cells in ″No drug control″; −: indicates significantly diminished viability (as determined by Student's t-test)
Description: as §1
(§2) In addition, knockout of NMRK1 in GSC 0131 cells should replicate the effect of FK866 seen in GSC 0827 cells.
Cloning of NMRK1 ORF and NMRK1 complementation studies. […] This could be used as negative control for transfection purposes.
NMRK1 was then synthesized as a g-block based on HEK293T genomic DNA sequence:
Insertion of the purified product into vector was accomplished via Gibson assembly using NEB HiFi DNA Assembly Master Mix Kit with BamHI pre-cut pLX304 vector for expression in GBM cell lines.
Once cloned into the pLX304 backbone, the NMRK1 expressing plasmid was prepared for nucleofection and introduced into GBM 0827 cell lines. […]

[2] = cited from earlier work
GSC 0131 = assay: Cell viability, FK866 with or without NMN, in GSC 0131; type: cell-based, human; parameters: key to viability compared to No drug control: +: indicates similar viability compared to parental cells in ″No drug control″; −: indicates significantly diminished viability (as determined by Student's t-test)
GSC 0131 NMRK1 KO = assay: Cell viability, FK866 with or without NMN, in GSC 0131 with NMRK1 knockout; type: cell-based, human; parameters: key to viability compared to No drug control: +: indicates similar viability compared to parental cells in ″No drug control″; −: indicates significantly diminished viability (as determined by Student's t-test)
Description: as §1, §2
NMRK1 knockout. Using nucleofection (4D-Nucleofector; Amaxa) in combination with Cas9:sgRNA complexes (Synthego). Using the Synthego prediction software, 3 synthetic sgRNA guides were generated to give indel formation within the NMRK1 transcript.
Synthetic guides were mixed with recombinant cas9 and nucleofected using an Amaxa 96-well nucleofection system. Indel formation was highest with guides 1 and 2, and lowest with guide 3. Combining guides 1 and 2 yielded >90% indel formation. […]

Compound	viability compared to No drug control (GSC 0827; GSC 0827 cells, FK-866 alone or with NMN)	rescue of FK866-treated cells with NMN (GSC 0827)	selectivity of cytotoxicity for GSCs over neural stem cells [1]	viability compared to No drug control (CB660)	viability compared to No drug control (GSC 0827 + NMRK1; GSC 0827 + NMRK1 cells, FK-866 alone or with NMN)	toxicity in clinical trials [2]	viability compared to No drug control (GSC 0131; GSC 0131 cells, FK-866 alone or with NMN)	viability compared to No drug control (GSC 0131 NMRK1 KO; GSC 0131 NMRK1 KO cells, FK-866 alone or with NMN)	rescue of FK866-treated cells with NMN (GSC 0827 + NMRK1; GSC-0827 cells with ectopic NMRK1 expression, in the presence of FK866)	rescue of FK866-treated cells with NMN (GSC 0131; GSC-0131 cells, in the presence of FK866)	rescue of FK866-treated cells with NMN (GSC 0131 NMRK1 KO; GSC-0131 cells with NMRK1 knockout, in the presence of FK866)
O=C(/C=C/c1cccnc1)NCCCCC1CCN(C(=O)c2ccccc2)CC1 [FK866, (E)-N-[4-(1-benzoyl-4-yl)-butyl]-3-(pyridin-3-yl) acrylamide]	−	remained exquisitely sensitive; also recorded: cannot be overcome	GSC-selective cytotoxicity; also recorded: GSC and transformation specificity	+	−	dose-limiting toxicities	−	−			
NC(=O)c1ccc[n+]([C@@H]2O[C@H](COP(=O)([O-])O)[C@@H](O)[C@H]2O)c1 [NMN, nicotinamide mononucleotide]		not							sufficient to rescue; also recorded: demonstrated rescue; also recorded: allows utilization	could be rescued; also recorded: sufficient to rescue; also recorded: can be complemented	rescue was prevented
